Measurements taken from BindingDB's records for doi:10.7270/Q2H130FK (Nmmlsc, 2007).
pEC50: −log10 of the molar value. Structures can show the parent of a compound that is named as a salt.

Biological target: T1, Integrin alpha-4 (Homo sapiens, UniProt P05556+P13612)
T1 sequence (P13612 whole entry): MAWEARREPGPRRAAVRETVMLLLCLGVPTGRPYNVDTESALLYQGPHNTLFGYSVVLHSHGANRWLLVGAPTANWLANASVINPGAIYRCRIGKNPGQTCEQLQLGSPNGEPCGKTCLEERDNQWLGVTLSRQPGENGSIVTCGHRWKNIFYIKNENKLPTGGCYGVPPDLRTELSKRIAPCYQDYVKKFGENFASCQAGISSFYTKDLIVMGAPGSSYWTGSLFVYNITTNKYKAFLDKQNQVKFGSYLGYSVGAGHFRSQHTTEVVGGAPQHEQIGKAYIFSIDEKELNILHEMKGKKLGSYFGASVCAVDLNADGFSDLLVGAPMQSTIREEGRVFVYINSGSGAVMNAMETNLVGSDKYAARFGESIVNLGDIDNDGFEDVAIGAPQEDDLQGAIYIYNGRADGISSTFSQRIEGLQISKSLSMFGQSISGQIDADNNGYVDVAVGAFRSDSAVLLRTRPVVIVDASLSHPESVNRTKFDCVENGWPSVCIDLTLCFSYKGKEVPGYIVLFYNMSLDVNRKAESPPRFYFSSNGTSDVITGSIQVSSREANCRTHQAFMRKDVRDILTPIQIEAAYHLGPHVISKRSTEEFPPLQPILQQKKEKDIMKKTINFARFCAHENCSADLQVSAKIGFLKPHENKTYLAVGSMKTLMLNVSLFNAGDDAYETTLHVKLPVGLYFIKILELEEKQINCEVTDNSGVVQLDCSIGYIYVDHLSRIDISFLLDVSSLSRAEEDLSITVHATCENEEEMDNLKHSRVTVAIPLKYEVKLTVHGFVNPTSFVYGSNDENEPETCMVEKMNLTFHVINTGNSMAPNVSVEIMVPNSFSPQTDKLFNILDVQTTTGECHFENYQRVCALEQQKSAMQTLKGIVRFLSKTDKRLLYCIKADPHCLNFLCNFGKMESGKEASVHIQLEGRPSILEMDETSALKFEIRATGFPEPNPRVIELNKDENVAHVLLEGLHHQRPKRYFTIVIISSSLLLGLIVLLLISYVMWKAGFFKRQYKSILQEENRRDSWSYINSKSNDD
Assay: inhibition of LDV ligand binding to VLA-4 – cell-based, LDV-FITC binding, flow cytometry, dose response (AID 702)

Structure (SMILES)	pEC50
CCOC(=O)N1CCC(NC(=O)CSCc2nc(-c3ccc(OC)c(OC)c3)oc2C)CC1 [4-[[2-[[2-(3,4-dimethoxyphenyl)-5-methyl-4-oxazolyl]methylthio]-1-oxoethyl]amino]-1-piperidinecarboxylic acid ethyl ester]	7.10
COc1ccc(-n2ncc3c(N4CCCc5ccccc54)ncnc32)cc1 [1-[1-(4-methoxyphenyl)-1H-pyrazolo[3,4-d]pyrimidin-4-yl]-1,2,3,4-tetrahydroquinoline]	4.28
COc1ccc(-c2nnc(Nc3nc4c(OC)cccc4s3)o2)cc1 [MLS000045458]	5.10
COc1cccc2sc(Nc3nc(-c4ccccn4)cs3)nc12 [(4-methoxy-1,3-benzothiazol-2-yl)-[4-(2-pyridyl)thiazol-2-yl]amine]	5.17
Cc1csc(NC(=O)CSc2nsc(SCC(=O)Nc3nc(C)cs3)c2C#N)n1 [2-[[4-cyano-3-[2-[(4-methyl-1,3-thiazol-2-yl)amino]-2-oxidanylidene-ethyl]sulfanyl-1,2-thiazol-5-yl]sulfanyl]-N-(4-methyl-1,3-thiazol-2-yl)ethanamide]	4.69
Cc1ccccc1CS(=O)(=O)Cc1ccc(C(=O)NCc2ccccn2)o1 [5-[(2-methylbenzyl)sulfonylmethyl]-N-(2-pyridylmethyl)-2-furamide]	< 4.00
COc1cccc2sc(Nc3nnc(-c4ccc(F)cc4)o3)nc12 [5-(4-fluorophenyl)-N-(4-methoxy-1,3-benzothiazol-2-yl)-1,3,4-oxadiazol-2-amine]	5.22
Cc1ccc(C(=O)NCC(C)(C)O)cc1 [4-methyl-N-(2-methyl-2-oxidanyl-propyl)benzamide]	5.63
COc1cccc2sc(Nc3nnc(-c4cccs4)o3)nc12 [MolPort-003-038-736]	5.49
COc1ccc(-c2nnc(Nc3nc4c(OC)cccc4s3)o2)c(OC)c1 [5-(2,4-dimethoxyphenyl)-N-(4-methoxy-1,3-benzothiazol-2-yl)-1,3,4-oxadiazol-2-amine]	5.55
CCOc1ccc(-n2c(O)c(C=NCCN3CCNCC3)c(=O)[nH]c2=O)cc1 [SMR000057873]	5.29
CCOC(=O)c1cnc(-n2nc(C)cc2C)nc1NC(C)c1ccccc1 (centres undefined) [2-(3,5-dimethyl-1-pyrazolyl)-4-(1-phenylethylamino)-5-pyrimidinecarboxylic acid ethyl ester]	4.00
CCOC(=O)c1c(C)oc2c1c1c(c3ccccc32)OCN(Cc2ccccn2)C1 [MLS000566323]	5.36
COc1cccc(N2CCN(c3ncnc4c3[nH]c3ccc(F)cc34)CC2C)c1 (centres undefined) [8-fluoranyl-4-[4-(3-methoxyphenyl)-3-methyl-piperazin-1-yl]-5H-pyrimido[5,4-b]indole]	5.06
COCCNC(=O)C(c1ccncc1)N(C(=O)Cn1nnc2ccccc21)c1ccc(OC)cc1 (centres undefined) [2-(N-[2-(1-benzotriazolyl)-1-oxoethyl]-4-methoxyanilino)-N-(2-methoxyethyl)-2-pyridin-4-ylacetamide]	< 4.00
CCCCC1(C(=O)OCC)CC(CN2CCOCC2)OC1=O (centres undefined) [3-butyl-2-keto-5-(morpholinomethyl)tetrahydrofuran-3-carboxylic acid ethyl ester]	5.19
O=S(=O)(Nc1cccc2ncccc12)c1cccs1 [MLS000057468]	4.94

Structure (SMILES)	pEC50
NC(=O)c1cc(N)ccc1N1CCCC1 [5-Amino-2-pyrrolidin-1-yl-benzamide]	< 4.00
CCOc1ccc2[nH]c(=O)c(CN(CC3COCCO3)C(=O)C3CC3)cc2c1 (centres undefined) [MLS000031787]	4.35
O=c1c(CC[S+]([O-])c2ccccc2)c(O)n(-c2ccccc2)n1-c1ccccc1 (centres undefined) [1,2-Diphenyl-3,5-dioxo-4-(2-phenylsulfinylethyl)pyrazolidine]	4.76
CCOC(=O)c1sc(Nc2nc3c(OC)cccc3s2)nc1C [SMR000027213]	4.47
COc1ccc(-c2coc3c(CN4CCCCC4)c(O)c(CN4CCCCC4)c(O)c3c2=O)cc1 [3-(4-methoxyphenyl)-5,7-bis(oxidanyl)-6,8-bis(piperidin-1-ylmethyl)chromen-4-one]	4.00
O=S1(=O)Nc2c(ccc3cccnc23)-c2ccccc21 [5H-quinolino[8,7-c][1,2]benzothiazine 6,6-dioxide]	4.70
C#CCN(C)C(C)Cc1ccccc1 (centres undefined) [Deprenyl]	< 4.00
COc1ccc(Nc2cc(C)nc3ccccc23)cc1 [(4-methoxyphenyl)-(2-methyl-4-quinolyl)amine;hydrochloride]	5.37
Nc1nonc1C(=O)NCCN=Cc1cc(Cc2ccccc2)cc(Br)c1O [4-amino-N-[2-[[(E)-(3-benzyl-5-bromo-6-oxocyclohexa-2,4-dien-1-ylidene)methyl]amino]ethyl]-1,2,5-oxadiazole-3-carboxamide]	< 4.00
CCCCc1c(O)n(-c2ccccc2)n(-c2ccccc2)c1=O [3,5-Dioxo-1,2-diphenyl-4-n-butylpyrazolidine]	5.97
COc1ccc(C(=O)Oc2ccc(C(C)=O)cc2)c(OC)c1 [(4-acetylphenyl) 2,4-dimethoxybenzoate]	5.29
CN1C(=S)SC(N(O)C(=O)Nc2ccccc2)C1(C)C (centres undefined) [1-hydroxy-3-phenyl-1-(3,4,4-trimethyl-2-sulfanylidene-1,3-thiazolidin-5-yl)urea]	4.50
COc1ccc(OC)c(NC(=O)CCN2CCCC(C)C2)c1 (centres undefined) [MLS000070519]	4.85
CCCOc1ccc(C(CC(=O)O)NC(=O)c2ccc3c(c2)OCO3)cc1 (centres undefined) [MLS000085916]	4.95
CC(N=O)C(=O)NCc1ccccn1 (centres undefined) [(2E)-2-(hydroxyimino)-N-(pyridin-2-ylmethyl)propanamide]	7.05
OC(CN1CCOCC1)CN(c1ccccc1)c1ccccc1 (centres undefined) [1-(4-morpholinyl)-3-(N-phenylanilino)-2-propanol;hydrochloride]	5.38
Cc1cc(=O)oc2c(CN3CCC(C)CC3)c(O)c(Cl)cc12 [6-chloranyl-4-methyl-8-[(4-methylpiperidin-1-yl)methyl]-7-oxidanyl-chromen-2-one]	5.34
